Data published in PubChem BioAssay AID1845198 (Molecular Pharmacology Branch, DTP, NCI, 2023).

Test system: 425362-245-T-J1 tumor spheroids, viability % test/control
Assay: Anticancer human tumor 425362-245-T-J1 patient-derived melanoma cell line growth inhibition
Settings: spheroids with HUVEC and MSC; for IC50: curve of first compound; for viability, T/C: stronger effect = lower value; active = viability on the fitted dose curve at most 10% of control; inactive = the rest
From the text: Multicellular complex tumor spheroid response to DNA repair inhibitors in combination with DNA-damaging drugs
This study explores the anticancer activities of DNA-damaging drugs and inhibitors of DNA damage repair, both as single agents and in combinations. Complex tumor spheroids comprised of malignant cells, endothelial cells and mesenchymal stem cells served as an in vitro model for human solid tumors. This model system incorporates physiologically relevant features and patient-derived or established malignant cell lines with clinically relevant genetic alterations from many tumor types. Twenty-six patient-derived or established malignant cell lines were evaluated representing sarcoma, melanoma, small cell lung cancer (SCLC), non-small cell lung cancer (NSCLC), as well as bladder, ovarian and pancreatic cancers. The concentration ranges selected for each drug and investigational agent were based upon clinically achievable concentrations if the clinical Cmax of the agent was known.
Compounds. The drugs and compounds olaparib (NSC753686), talazoparib (NSC767125), berzosertib (NSC777718), elimusertib (NSC800525), nedisertib (NSC802822), VX-984 (NSC792969), AZD-1390 (NSC803789), temozolomide (NSC362856), topotecan (NSC609699), trabectedin (NSC813783), staurosporine (NSC755774), and gemcitabine (NSC613327) were obtained from the National Cancer Institute (NCI) Developmental Therapeutics Program Chemical Repository. The FDA-approved anticancer drug set is available from the Developmental Therapeutics Program at https://dtp.cancer.gov/organization/dscb/obtaining/available_plates.htm. […] The stock solutions were prepared in dimethyl sulfoxide (DMSO, Sigma-Aldrich, St. Louis, MO, cat. D2650) at 400-fold the tested concentration and stored at -70 degrees C. Prior to their use, the stock solutions were diluted in fresh medium and the final DMSO concentration in the assay was 0.25% (v/v). All drugs and investigational agents were tested over a range starting from a high concentration at or near the clinical Cmax and decreasing in half-log increments. If the clinical Cmax for an agent had not been determined, the highest concentration tested was 10 microM.
Cell Lines. The patient-derived cancer cell (PDC) lines: 156681-154-R-J1-PDC, 283228-195-R-J1-PDC, 287954-098-R-J1-PDC, 292921-168-R-J2-PDC, 349418-098-R-PDC, 425362-245-T-J1-PDC, 556581-035-R-J1-PDC, and BL0293-F563-PDC were received from the NCI Patient-Derived Models Repository (PDMR, https://pdmr.cancer.gov). The established cell lines HS-SY-2 (RRID:CVCL_8719), MPNST, and SYO-1 (RRID:CVCL_7146) were obtained from the Sloan Kettering Institute. The alveolar soft parts sarcoma cell line ASPS-1 (RRID:CVCL_S738) was established at the NCI and grown from internal seed stocks. The following established cell lines were purchased from the American Type Culture Collection (ATCC, Manassas, VA): G-401 (ATCC, cat. CRL-1441, RRID:CVCL_0270), SW982 (ATCC, cat. HTB-93, RRID:CVCL_1734), VA-ES-BJ (ATCC, cat. CRL-2138, RRID:CVCL_1785), NCI-H719 (ATCC, cat. CRL-5837, RRID:CVCL_1582), NCI-H196 (ATCC, cat. CRL-5823, RRID:CVCL_1509), NCI-H841 (ATCC, cat. CRL-5845, RRID:CVCL_1595), NCI-H1618 (ATCC, cat. CRL-5879, RRID:CVCL_1480), NCI-H1876 (ATCC, cat. CRL-5902, RRID:CVCL_1503), DMS 114 (ATCC, cat. CRL-2066; RRID:CVCL_1174), NCI-H211 (ATCC, cat. CRL-5824; RRID:CVCL_1529), and SW 1271 (ATCC, cat. CRL-2177, RRID:CVCL_1716). The small cell lung cancer cell line COR-L88 was purchased from Sigma-Aldrich (cat. 92031917-1VL, RRID:CVCL_1141). The non-small cell lung cancer cell lines NCI-H226 (RRID:CVCL_1544) and NCI-H322M (RRID:CVCL_1557) were established at the NCI and grown from internal seed stocks. Pooled donor human umbilical vein endothelial cells (HUVEC, Lonza, cat. CC-2519) and human mesenchymal stem cells (hMSC, Lonza, cat. PT-2501) were purchased from Lonza (Walkersville, MD).
Cell Culture. All cells were maintained in an incubator at 37 degrees C and 5% CO2 with 95% humidity. […]
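Also: spheroids exposed to agents for 7 days.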
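For viability, T/C in this document: 100% = DMSO vehicle control viability.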

CC(C)n1c(=O)n(C)c2cnc3cc(F)c(-c4ccc(OCCCN5CCCCC5)nc4)cc3c21 + COc1cc2c(cc1O)CCNC21CSC2c3c(OC(C)=O)c(C)c4c(c3C(COC1=O)N1C(O)C3Cc5cc(C)c(OC)c(O)c5C(C21)N3C)OCO4
active: viability, T/C (second compound 30 pM, first compound 10 µM) 5.34% | viability, T/C (second compound 94.9 pM, first compound 0.1 µM) 9.68% | viability, T/C (second compound 94.9 pM, first compound 0.316 µM) 5.43% | viability, T/C (second compound 94.9 pM, first compound 1 µM) 6.03% | viability, T/C (second compound 94.9 pM, first compound 3.16 µM) 6.79% | viability, T/C (second compound 94.9 pM, first compound 10 µM) 4.33% | viability, T/C (second compound 0.0003 µM, first compound 0.0316 µM) 3.13% | viability, T/C (second compound 0.0003 µM, first compound 0.1 µM) 2.75% | viability, T/C (second compound 0.0003 µM, first compound 0.316 µM) 1.61% | viability, T/C (second compound 0.0003 µM, first compound 1 µM) 1.81% | viability, T/C (second compound 0.0003 µM, first compound 3.16 µM) 1.68% | viability, T/C (second compound 0.0003 µM, first compound 10 µM) 1.23% | viability, T/C (second compound 0.000949 µM, first compound 0.0316 µM) 0.2% | viability, T/C (second compound 0.000949 µM, first compound 0.1 µM) 0.2% | viability, T/C (second compound 0.000949 µM, first compound 0.316 µM) 0.19% | viability, T/C (second compound 0.000949 µM, first compound 1 µM) 0.63% | viability, T/C (second compound 0.000949 µM, first compound 3.16 µM) 0.35% | viability, T/C (second compound 0.000949 µM, first compound 10 µM) 0.15% | viability, T/C (second compound 0.003 µM, first compound 0.0316 µM) 0.18% | viability, T/C (second compound 0.003 µM, first compound 0.1 µM) 0.19% | viability, T/C (second compound 0.003 µM, first compound 0.316 µM) 0.17% | viability, T/C (second compound 0.003 µM, first compound 1 µM) 0.12% | viability, T/C (second compound 0.003 µM, first compound 3.16 µM) 0.12% | viability, T/C (second compound 0.003 µM, first compound 10 µM) 0.23%
inactive: viability, T/C (second compound 30 pM, first compound 0.0316 µM) 14.8% | viability, T/C (second compound 30 pM, first compound 0.1 µM) 30.2% | viability, T/C (second compound 30 pM, first compound 0.316 µM) 13.3% | viability, T/C (second compound 30 pM, first compound 1 µM) 14.8% | viability, T/C (second compound 30 pM, first compound 3.16 µM) 11.2% | viability, T/C (second compound 94.9 pM, first compound 0.0316 µM) 12%
< 31.6 nM: IC50 (second compound 30 pM) | IC50 (second compound 94.9 pM) | IC50 (second compound 0.0003 µM) | IC50 (second compound 0.000949 µM) | IC50 (second compound 0.003 µM)

O=C(c1cc(Cc2n[nH]c(=O)c3ccccc23)ccc1F)N1CCN(C(=O)C2CC2)CC1 + CC[C@@]1(O)C(=O)OCc2c1cc1n(c2=O)Cc2cc3c(CN(C)C)c(O)ccc3nc2-1
650 nM: IC50 (second compound 0.00949 µM)
3170 nM: IC50 (second compound 0.003 µM)
inactive: viability, T/C (second compound 0.003 µM, first compound 0.0949 µM) 87% | viability, T/C (second compound 0.003 µM, first compound 0.3 µM) 84.8% | viability, T/C (second compound 0.003 µM, first compound 0.949 µM) 80.6% | viability, T/C (second compound 0.003 µM, first compound 3 µM) 52.4% | viability, T/C (second compound 0.00949 µM, first compound 0.0949 µM) 71.3% | viability, T/C (second compound 0.00949 µM, first compound 0.3 µM) 55% | viability, T/C (second compound 0.00949 µM, first compound 0.949 µM) 46.6% | viability, T/C (second compound 0.00949 µM, first compound 3 µM) 34.8% | viability, T/C (second compound 0.00949 µM, first compound 9.49 µM) 9.52%
< 94.9 nM: IC50 (second compound 0.03 µM) | IC50 (second compound 0.0949 µM) | IC50 (second compound 0.3 µM)
active: viability, T/C (second compound 0.003 µM, first compound 9.49 µM) 7.82% | viability, T/C (second compound 0.003 µM, first compound 30 µM) 9.12% | viability, T/C (second compound 0.00949 µM, first compound 30 µM) 8.51% | viability, T/C (second compound 0.03 µM, first compound 0.0949 µM) 7.79% | viability, T/C (second compound 0.03 µM, first compound 0.3 µM) 10.1% | viability, T/C (second compound 0.03 µM, first compound 0.949 µM) 8.82% | viability, T/C (second compound 0.03 µM, first compound 3 µM) 6.98% | viability, T/C (second compound 0.03 µM, first compound 9.49 µM) 6.48% | viability, T/C (second compound 0.03 µM, first compound 30 µM) 5.12% | viability, T/C (second compound 0.0949 µM, first compound 0.0949 µM) 4.29% | viability, T/C (second compound 0.0949 µM, first compound 0.3 µM) 4.4% | viability, T/C (second compound 0.0949 µM, first compound 0.949 µM) 5.46% | viability, T/C (second compound 0.0949 µM, first compound 3 µM) 4.39% | viability, T/C (second compound 0.0949 µM, first compound 9.49 µM) 3.36% | viability, T/C (second compound 0.0949 µM, first compound 30 µM) 3.93% | viability, T/C (second compound 0.3 µM, first compound 0.0949 µM) 2.55% | viability, T/C (second compound 0.3 µM, first compound 0.3 µM) 1.67% | viability, T/C (second compound 0.3 µM, first compound 0.949 µM) 1.76% | viability, T/C (second compound 0.3 µM, first compound 3 µM) 1.64% | viability, T/C (second compound 0.3 µM, first compound 9.49 µM) 1.57% | viability, T/C (second compound 0.3 µM, first compound 30 µM) 1.68%
